Test results from patent publication US9107415B2, “2-(substituted-phenyl)-cyclopentane-1,3-dione compounds, and derivatives thereof” (Syngenta Limited, priority 2011, dated 2015).

Legend:
Format in all cases: in vivo
[1] = test system: Lolium multiflorum (LOLMU); experiment: Biological Example 4B (not-previously-formulated compounds) post-emergence herbicidal activity on grassy weeds; details: 14 DAA, technical compound in IF50 + Adigor, mean of two
Protocol: (§1) Seeds of a variety of test species are sown in standard soil in pots. After cultivation for 14 days under controlled conditions in a glasshouse (at 22/16°C., day/night; 16 hours light; 65% humidity), the plants are sprayed with an aqueous spray solution derived from the formulation of the technical active ingredient dissolved in acetone plus IF50 containing
(§2) 10.56 wt % Emulsogen™EL (castor oil ethoxylate, CAS Registry number 61791-12-6)
(§3) 42.22 wt % N-Methyl pyrrolidone
(§4) 42.22 wt % dipropylene glycol monoethyl ether
(§5) at a 1:20 ratio of (technical active ingredient:IF50). The adjuvant Adigor™(an adjuvant containing inter alia methylated rapeseed oil, e.g. available from Syngenta) is added to form a 0.5% v/v solution. The test plants are then grown on under controlled conditions in the glasshouse (at 22/16°C., day/night; 16 hours light; 65% humidity) and are watered twice daily. After 14 days the test is evaluated (100%=total damage to plant; 0%=no damage to plant).
(§6) Post-emergence herbicidal activity (phytotoxicity) data, on certain grassy monocotyledonous weeds and cereal crops in a glasshouse, are measured 14 days after application of the herbicide (14 DAA), for (a) a […] the same time as the herbicide, and (b) for a post-emergence application rate of 30 g/ha of the test herbicide with 50 g/ha of cloquintocet-mexyl safener applied at substantially the same time as the herbicide. Herbicidal activity (phytotoxicity) is evaluated visually, and an assessed percentage phytotoxicity score is given for each herbicidal application on each plant species (with 100%=total damage to plant; 0%=no damage to plant). Two repetitions are made for each experiment, and the mean herbicidal activity (phytotoxicity) data is reported.
(§7) Test plants: Avena fatua (AVEFA), Lolium multiflorum (LOLMU), Setaria viridis (SETVI), Poa annua (POAAN), Alopecurus myosuroides (ALOMY). All five of these are grassy monocotyledonous weeds.

[2] = test system: Alopecurus myosuroides (ALOMY); experiment: Biological Example 1 glasshouse screen, post-emergence herbicidal activity; details: 312 h, application rate 250 g/ha, evaluated after 13 days, read-out: ALOMY percentage phytotoxicity
How it was run: (§8)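 Read-out: visual percentage phytotoxicity at 13 days, 0% no damage to 100% total damage. Spray solution of unformulated compound in 50:50 acetone/water plus 0.5% Tween 20, applied to potted plants one day after sowing (pre) or after 8 days' growth (post).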

[3] = test system: Echinochloa crus-galli (ECHCG); experiment: as above; details: 312 h, application rate 250 g/ha, evaluated after 13 days, read-out: ECHCG percentage phytotoxicity
How it was run: as §8

[4] = test system: Alopecurus myosuroides (ALOMY); experiment: Biological Example 1 glasshouse screen, pre-emergence herbicidal activity; details: 312 h, application rate 250 g/ha, evaluated after 13 days, read-out: ALOMY percentage phytotoxicity
How it was run: as §8

[5] = test system: Echinochloa crus-galli (ECHCG); experiment: as above; details: 312 h, application rate 250 g/ha, evaluated after 13 days, read-out: ECHCG percentage phytotoxicity
How it was run: as §8

Avena fatua (AVEFA) [6] = experiment: Biological Example 4B (not-previously-formulated compounds) post-emergence herbicidal activity on grassy weeds; details: 14 DAA, technical compound in IF50 + Adigor, mean of two
Protocol: as §1, §2, §3, §4, §5
(§9) […] Herbicidal activity (phytotoxicity) is evaluated visually, and an assessed percentage phytotoxicity score is given for each herbicidal application on each plant species (with 100%=total damage to plant; 0%=no damage to plant). Two repetitions are made for each experiment, and the mean herbicidal activity (phytotoxicity) data is reported.
as §7

Setaria viridis (SETVI) = experiment: as above; details: 14 DAA, technical compound in IF50 + Adigor, mean of two
Protocol: as §1, §2, §3, §4, §5, §9, §7

Poa annua (POAAN) = experiment: as above; details: 14 DAA, technical compound in IF50 + Adigor, mean of two
Protocol: as §1, §2, §3, §4, §5, §9, §7

[7] = test system: Alopecurus myosuroides (ALOMY); experiment: as above; details: 14 DAA, technical compound in IF50 + Adigor, mean of two
Protocol: as §1, §2, §3, §4, §5, §9, §7

Winter Barley “Suzuka” = experiment: Biological Example 4B post-emergence phytotoxicity on cereal crops; details: 14 DAA, technical compound in IF50 + Adigor, mean of two
Protocol: as §1, §2, §3, §4, §5, §9

Winter Wheat “Hereward” = experiment: as above; details: 14 DAA, technical compound in IF50 + Adigor, mean of two
Protocol: as §1, §2, §3, §4, §5, §9

Avena fatua (AVEFA) [8] = experiment: Biological Example 1 glasshouse screen, pre-emergence herbicidal activity; details: 312 h, application rate 250 g/ha, evaluated after 13 days, read-out: AVEFA percentage phytotoxicity
How it was run: (§10)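 Pots in a glasshouse (24/16°C day/night, 14 h light, 65% humidity) were sprayed one day after sowing (pre-emergence) or after 8 days (post-emergence), using acetone/water (50:50) with 0.5% Tween 20. Phytotoxicity was scored visually as % damage (0-100) 13 days after application.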

Lolium perenne (LOLPE) [9] = experiment: as above; details: 312 h, application rate 250 g/ha, evaluated after 13 days, read-out: LOLPE percentage phytotoxicity
How it was run: as §10

Avena fatua (AVEFA) [10] = experiment: Biological Example 1 glasshouse screen, post-emergence herbicidal activity; details: 312 h, application rate 250 g/ha, evaluated after 13 days, read-out: AVEFA percentage phytotoxicity
How it was run: as §10

Lolium perenne (LOLPE) [11] = experiment: as above; details: 312 h, application rate 250 g/ha, evaluated after 13 days, read-out: LOLPE percentage phytotoxicity
How it was run: as §10

Spring Wheat “Teal” = experiment: Biological Example 4B post-emergence phytotoxicity on cereal crops; details: 14 DAA, technical compound in IF50 + Adigor, mean of two
Protocol: as §1, §2, §3, §4, §5, §6

[12] = test system: Spring Barley “Harrington”; experiment: as above; details: cloquintocet-mexyl 50 g/ha, 14 DAA, technical compound in IF50 + Adigor, mean of two
[13] = test system: Spring Barley “Harrington”; experiment: as above; details: 14 DAA, technical compound in IF50 + Adigor, mean of two
Protocol: as §1, §2, §3, §4, §5
Post-emergence herbicidal activity (phytotoxicity) data, on certain grassy monocotyledonous weeds and cereal crops in a glasshouse, are measured 14 days after application of the herbicide (14 DAA), for (a) a post-emergence application rate of 60 g/ha of the test herbicide with or without 50 g/ha of cloquintocet-mexyl safener applied at substantially the same time as the herbicide, and (b) for a post-emergence application rate of 30 g/ha of the test herbicide with 50 g/ha of cloquintocet-mexyl safener applied at substantially the same time as the herbicide. Herbicidal activity (phytotoxicity) is evaluated visually, and an assessed percentage phytotoxicity score is given for each herbicidal application on each plant species (with 100%=total damage to plant; 0%=no damage to plant). Two repetitions are made for each experiment, and the mean herbicidal activity (phytotoxicity) data is reported.

[14] = 7.5 g/ha, cloquintocet-mexyl 50 g/ha
[15] = 15 g/ha, cloquintocet-mexyl 50 g/ha
[16] = 30 g/ha, cloquintocet-mexyl 50 g/ha
[17] = 60 g/ha, cloquintocet-mexyl 0 g/ha
[18] = 60 g/ha, cloquintocet-mexyl 50 g/ha

SMILES: CC#Cc1cc(C)c(C2C(=O)CC(Cc3ccccn3)C2=O)c(CC)c1 (centres unmarked) [Compound A-26]
- LOLMU % phytotoxicity [1, 14]: 90%
- LOLMU % phytotoxicity [1, 15]: 100%
- LOLMU % phytotoxicity [1, 16]: 100%
- LOLMU % phytotoxicity [1, 17]: 100%
- LOLMU % phytotoxicity [1, 18]: 100%
- pest or weed control at 250 g/ha [2]: 100%
- pest or weed control at 250 g/ha [3]: 100%
- pest or weed control at 250 g/ha [4]: 100%
- pest or weed control at 250 g/ha [5]: 100%
- AVEFA % phytotoxicity (Avena fatua (AVEFA) [6]; [14]): 83%
- AVEFA % phytotoxicity (Avena fatua (AVEFA) [6]; [15]): 99%
- AVEFA % phytotoxicity (Avena fatua (AVEFA) [6]; [16]): 100%
- AVEFA % phytotoxicity (Avena fatua (AVEFA) [6]; [17]): 100%
- AVEFA % phytotoxicity (Avena fatua (AVEFA) [6]; [18]): 100%
- SETVI % phytotoxicity (Setaria viridis (SETVI); [14]): 68%
- SETVI % phytotoxicity (Setaria viridis (SETVI); [15]): 95%
- SETVI % phytotoxicity (Setaria viridis (SETVI); [16]): 100%
- SETVI % phytotoxicity (Setaria viridis (SETVI); [17]): 100%
- SETVI % phytotoxicity (Setaria viridis (SETVI); [18]): 100%
- POAAN % phytotoxicity (Poa annua (POAAN); [14]): 0%
- POAAN % phytotoxicity (Poa annua (POAAN); [15]): 13%
- POAAN % phytotoxicity (Poa annua (POAAN); [16]): 33%
- POAAN % phytotoxicity (Poa annua (POAAN); [17]): 73%
- POAAN % phytotoxicity (Poa annua (POAAN); [18]): 70%
- ALOMY % phytotoxicity [7, 14]: 97%
- ALOMY % phytotoxicity [7, 15]: 99%
- ALOMY % phytotoxicity [7, 16]: 100%
- ALOMY % phytotoxicity [7, 17]: 100%
- ALOMY % phytotoxicity [7, 18]: 100%
- Winter Barley “Suzuka” phytotoxicity (%) (Winter Barley “Suzuka”; [14]): 4%
- Winter Barley “Suzuka” phytotoxicity (%) (Winter Barley “Suzuka”; [15]): 53%
- Winter Barley “Suzuka” phytotoxicity (%) (Winter Barley “Suzuka”; [16]): 100%
- Winter Barley “Suzuka” phytotoxicity (%) (Winter Barley “Suzuka”; [17]): 100%
- Winter Barley “Suzuka” phytotoxicity (%) (Winter Barley “Suzuka”; [18]): 100%
- Winter Wheat “Hereward” phytotoxicity (%) (Winter Wheat “Hereward”; [14]): 30%
- Winter Wheat “Hereward” phytotoxicity (%) (Winter Wheat “Hereward”; [15]): 80%
- Winter Wheat “Hereward” phytotoxicity (%) (Winter Wheat “Hereward”; [16]): 90%
- Winter Wheat “Hereward” phytotoxicity (%) (Winter Wheat “Hereward”; [17]): 99%
- Winter Wheat “Hereward” phytotoxicity (%) (Winter Wheat “Hereward”; [18]): 98%
- pest or weed control at 250 g/ha (Avena fatua (AVEFA) [8]): 100%
- pest or weed control at 250 g/ha (Lolium perenne (LOLPE) [9]): 100%
- pest or weed control at 250 g/ha (Avena fatua (AVEFA) [10]): 100%
- pest or weed control at 250 g/ha (Lolium perenne (LOLPE) [11]): 100%
- Spring Wheat “Teal” phytotoxicity (%) (Spring Wheat “Teal”; [14]): 23%
- Spring Wheat “Teal” phytotoxicity (%) (Spring Wheat “Teal”; [15]): 78%
- Spring Wheat “Teal” phytotoxicity (%) (Spring Wheat “Teal”; [16]): 93%
- Spring Wheat “Teal” phytotoxicity (%) (Spring Wheat “Teal”; [17]): 100%
- Spring Wheat “Teal” phytotoxicity (%) (Spring Wheat “Teal”; [18]): 97%
- Spring Barley “Harrington” phytotoxicity (%) ([12]; 7.5 g/ha): 10%
- Spring Barley “Harrington” phytotoxicity (%) ([12]; 15 g/ha): 80%
- Spring Barley “Harrington” phytotoxicity (%) [13, 16]: 99%
- Spring Barley “Harrington” phytotoxicity (%) [13, 17]: 100%
- Spring Barley “Harrington” phytotoxicity (%) [13, 18]: 100%
